{"source": "paper PMC8297402", "about": "“Trifluoromethyl-substituted 3,5-bis(arylidene)-4-piperidones as potential anti-hepatoma and anti-inflammation agents by inhibiting NF-кB activation” (Journal of Enzyme Inhibition and Medicinal Chemistry, 2021)", "key": {"[1]": {"test": "Modified MTT cytotoxicity assay, normal heptical cell line HHL-5", "details": "human, HHL-5 cells (normal hepatic cell line)", "description": "To further verify the anti-tumour activity, one human non-small cell lung cancer cell line (A549), one human ovarian cancer cell line (A2780), and one human normal heptical cell line (HHL-5) were screened by BAPs (4–30) using a modified MTT assay (Supporting Information). DOX and curcumin were selected as positive controls.\nThe optical density (OD) value of each well was measured on a\nmulti-well plate reader (TECAN, Mӓnnedorf, Switzerland ) at 570 nm.\nEvery IC 50 value was the average of three replicates.\nDoxorubicin (DOX) and Curcumin were used as positive controls."}, "RAW264.7 cell": {"system": "RAW264.7 cell", "test": "MTT toxicity pre-experiment on RAW264.7 macrophagocyte", "format": "cell-based, mouse", "outline": "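Cytotoxicity toward RAW264.7 macrophages determined by MTT assay with compounds at 5.0 μM, expressed as cell survival rate.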"}, "female ICR mice": {"system": "female ICR mice", "test": "Acute toxicity study, 14 days intragastric administration", "format": "in vivo", "details": "for Liver tissue morphology, HE staining: intragastric", "experimental": "Preliminary safety evaluation of BAP 16 […]\n(§1) Acute Toxicity Studies: Animal experiments were reviewed and approved by the Binzhou Medical University Experimental Animal Committee. The acute toxicity study was investigated on the six-week-old female ICR mice (n = 30) weighing 18-22 grams (Jinan Pengyue Experimental Animal Breeding Co., Ltd.). Briefly, mice were randomly divided into three groups (n = 10/group) and administrated the BAP 16 or solvent. The three groups of mice were treated with intragastric administration of 300 mg/kg, 600 mg/kg of BAP 16 and vehicle (saline containing 0.5% CMC-Na) each day. The body weight of mice was recorded every day, and the toxicity and death of mice were monitored daily for up to day 14. On day 14, the surviving animals were dissected to observe whether the internal organs had visible tissue changes, and then the livers were taken for formaldehyde fixation, dehydration, embedding, sectioning, and HE staining. The cell images were taken using a light microscopy (Olympus, Tokyo, Japan).\nDuring the 14 days of intragastric administration, the food and water intakes of all three groups […]\neosinophilic changes, and edema (Figure S1).\nFigure S1. The morphology of the liver tissues after the photo by HE staining. (A) In the control group, the hepatic lobular cells were normal without edema and degeneration. (B) In the 300 mg/kg […]\nnucleus stained deeper. […] (C) […]\nsmaller and the color of nucleus became deeper. There were obvious eosinophilic changes and […]\n(1 picture or pasted object on this page, not shown here)"}, "[2]": {"test": "Modified MTT cytotoxicity assay, normal heptical cell line LO2", "format": "cell-based, human", "details": "human, LO2 cells (normal hepatic cell line), 24 h incubation", "outline": "(§2)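 HepG2 grown in DMEM, SMMC-7721 and LO2 in RPMI 1640, each with 10% FBS; ~8 × 10^3 cells/well. Compounds at 0.3125-10 μg/mL for 24 h at 37 °C, then MTT for 4 h. IC50 as mean of three replicates.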"}, "SMMC-7721": {"system": "SMMC-7721", "test": "Modified MTT cytotoxicity assay, SMMC-7721", "format": "cell-based, Human", "details": "for SI (selectivity index) SMMC-7721: quotient of IC50 for normal (LO2) and malignant (SMMC-7721) cells", "outline": "as §2"}, "IL-6": {"system": "IL-6", "test": "ELISA of IL-6 release in LPS-stimulated RAW264.7 cells", "format": "cell-based, mouse", "details": "Mus musculus, RAW264.7, BAPs (5 μM) + LPS (1 μg/mL), RAW264.7, ELISA; read-out: Inhibition rate IL-6", "outline": "(§3)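 RAW264.7 cells pretreated 2 h with compound at 5.0 μM (PDTC 30 μM as reference), then stimulated with LPS 1.0 μg/mL for a further 22 h. Secreted TNF-α and IL-6 in the culture media quantified by ELISA.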"}, "in vitro": {"test": "in vitro", "format": "cell-based", "details": "human", "experimental": "aThe letters SI refer to the selectivity index which is the quotient of the IC50 values for normal and […]\nPreliminary safety evaluation of BAP 16\nToxicity test on normal non-liver cell lines: To validate the safety of BAP 16, one Human embryonic lung fibroblasts cell line (HFL1), one human embryonic kidney cell line (HEK293), and one human normal lung bronchial epithelial cell line (BEAS-2B) were tested using a modified MTT assay (Dojindo Laboratories, Tokyo, Japan). F12K medium containing 10% FBS was used for culturing the HFL1 cell line, DMEM medium containing 10% FBS and 1.5 g/L sodium bicarbonate was used for culturing the HEK293 cell line, and the BEAS-2B special medium was used for culturing BEAS-2B cell line. The remaining operations were consistent with the previous […]\nhuman normal non-heptical cell lines (HFL1, HEK293 and BEAS-2B), which was similar to that of human normal heptical cell lines.\nTable S2. Toxicity test of BAP 16 on normal non-heptical cell lines. […]\nas §1"}, "TNF-α": {"system": "TNF-α", "test": "ELISA of TNF-α release in LPS-stimulated RAW264.7 cells", "format": "cell-based, mouse", "details": "Mus musculus", "outline": "as §3"}, "[3]": {"details": "mice, intragastric, 300, 600 mg/kg/d, 14 days"}}, "note": "Like-named read-outs stand apart in the source and are kept apart here."}
{"compound": "O=C1C(=Cc2cccc(C(F)(F)F)c2)CN(S(=O)(=O)c2ccc(C(F)(F)F)cc2)CC1=Cc1cccc(C(F)(F)F)c1", "note": "[BAP 16]", "values": [{"measurement": "IC50", "setting": "[1]", "result": "6.2 ± 0.4", "unit": "µM"}, {"measurement": "Survival rate RAW264.7 cell", "setting": "RAW264.7 cell; BAPs 5 μM", "result": "88.6 ± 3.7", "unit": "%"}, {"measurement": "viability at 5 µM", "setting": "RAW264.7 cell; Mus musculus, RAW264.7, BAPs 5 μM, read-out: Survival rate RAW264.7 cell", "result": 88.6, "unit": "%"}, {"measurement": "Overall toxicity conclusion", "setting": "female ICR mice; cell and acute toxicity studies together", "result": "low overall toxicity"}, {"measurement": "Liver tissue morphology, HE staining", "setting": "female ICR mice; mice, 300 mg/kg group, day 14", "result": "some liver cells became smaller"}, {"measurement": "Liver tissue morphology, HE staining", "setting": "female ICR mice; mice, 600 mg/kg group, day 14", "result": "the cytoplasm of mouse liver was dehydrated seriously"}, {"measurement": "Body weight", "setting": "female ICR mice; [3]", "result": "increased slightly"}, {"measurement": "Food and water intakes", "setting": "female ICR mice; [3]", "result": "normal"}, {"measurement": "Toxic reaction observed during administration", "setting": "female ICR mice; [3]", "result": "no obvious toxic reaction was observed"}, {"measurement": "Liver tissue changes, HE staining", "setting": "female ICR mice; mice, intragastric, 300, 600 mg/kg/d, day 14", "result": "dose-related toxic changes"}, {"measurement": "IC50 at 24 h", "setting": "[2]", "result": "~17.8", "unit": "µM"}, {"measurement": "IC50", "setting": "SMMC-7721; Homo sapiens, SMMC-7721, 24 h, MTT, 24 h incubation, three replicates", "result": "~1.2", "unit": "µM"}, {"measurement": "SI (selectivity index) SMMC-7721", "setting": "SMMC-7721", "result": "ca. 14.8"}, {"measurement": "SI (selectivity index) SMMC-7721", "setting": "SMMC-7721; listed as 16", "result": 14.8}, {"measurement": "inhibition at 5 µM", "setting": "IL-6", "result": "~79.2", "unit": "%"}, {"measurement": "IC50", "setting": "in vitro; Cytotoxicity IC50 BEAS-2B", "result": "17.6 ± 2.53", "unit": "µM"}, {"measurement": "IC50", "setting": "in vitro; Cytotoxicity IC50 HEK293", "result": "7.19 ± 0.91", "unit": "µM"}, {"measurement": "IC50", "setting": "in vitro; Cytotoxicity IC50 HFL1", "result": "9.62 ± 1.52", "unit": "µM"}, {"measurement": "inhibition at 5 µM", "setting": "TNF-α; RAW264.7, BAPs (5 μM) + LPS (1 μg/mL), RAW264.7, ELISA, read-out: Inhibition rate TNF-α", "result": "~83.2", "unit": "%"}, {"measurement": "inhibition at 5 µM", "setting": "TNF-α; RAW264.7, average of TNF-α and IL-6, 5 μM + LPS, RAW264.7, read-out: Inhibition rates against IL-6 and TNF-α cytokine release, average", "result": 81.2, "unit": "%"}]}
